Tested on: Tetrahymena pyriformis
Experiment: 48 h IGC50 (-log10 mol/L); higher = more toxic

| SMILES | 48 h IGC50 (-log10 mol/L) |
| --- | --- |
| CC(C)CCN | 2.42 |
| COc1ccccc1Cl | 3.22 |
| CC(=O)c1cccs1 | 2.41 |
| Nc1c(Cl)cc([N+](=O)[O-])cc1[N+](=O)[O-] | 4.12 |
| CCOC(=O)CCCCCC(=O)OCC | 3.41 |
| O=[N+]([O-])c1ccc(I)c([N+](=O)[O-])c1 | 5.12 |
| NCc1ccc(Cl)cc1 | 3.16 |
| Cc1ccc(C=O)c2ccccc12 | 4.12 |
| CCCCCCC/C=C/C=O | 4.85 |
| C/C=C(\C)C=O | 2.86 |
| CCOC(=O)CCC(=O)CCC(=O)OCC | 2.36 |
| O=[N+]([O-])c1ccncc1 | 3.41 |
| CCOC(=O)C[C@H](O)CC#N | 1.36 |
| Cc1ccc(O)c(Br)c1 | 3.6 |
| CCCCC(=O)c1ccccc1 | 3.56 |
| Brc1ccccn1 | 2.46 |
| CN(CCO)CCO | 1.17 |
| CC1CCC(=O)O1 (stereo not drawn) | 1.43 |
| O=[N+]([O-])CBr | 4.64 |
| CC#CCCO | 1.82 |
| Nc1cc([N+](=O)[O-])ccc1Cl | 3.6 |
| CCCCCCCC(=O)c1ccccc1 | 4.89 |
| O=Cc1ccc(Br)cc1 | 3.59 |
| OCCBr | 2.15 |

| SMILES | 48 h IGC50 (-log10 mol/L) |
| --- | --- |
| Clc1cccc2ccccc12 | 3.81 |
| CCCCCCC(O)CCC (stereo not drawn) | 3.85 |
| CCCC(O)CC (stereo not drawn) | 2.15 |
| O=[N+]([O-])c1cccc(O)c1 | 3.51 |
| O=C(c1ccccc1)c1ccc(Br)cc1 | 4.26 |
| C=C(C)C(=O)OCCC | 2.35 |
| C=CCOC(=O)CCC | 2.37 |
| C=CC(=O)OCCCCC | 3.54 |
| CCCCc1ccco1 | 3.44 |
| CCCCCCNC(N)=S | 3.86 |
| OCC(Cl)Cl | 2.01 |
| CCCCCC(N)=O | 2.09 |
| COC(=O)CCBr | 4.03 |
| OCCCCCCBr | 3.01 |
| CCCCCCCC(=O)OC | 3.54 |
| NNC=O | 2.13 |
| CCCC(Br)C(=O)O (stereo not drawn) | 2.96 |
| O=[N+]([O-])c1cc(CO)cc([N+](=O)[O-])c1 | 3.53 |
| Cc1cccc(N)c1 | 2.72 |
| N#CCc1ccc([N+](=O)[O-])cc1 | 3.13 |
| CCC(C)OC(C)=O (stereo not drawn) | 2.32 |
| CC(C)(C)c1ccc(CO)cc1 | 3.48 |
| NC(=O)c1ccc(N)cc1 | 2.09 |
| CC(C)C(C)O (stereo not drawn) | 2 |

| SMILES | 48 h IGC50 (-log10 mol/L) |
| --- | --- |
| CCCOC(=O)c1ccccc1C(=O)OCCC | 3.98 |
| C#CC(O)C(C)CCC (stereo not drawn) | 3.74 |
| O=[N+]([O-])c1cccnc1Cl | 3.87 |
| Nc1ccccc1I | 3.35 |
| CCCCC/C=C/C(=O)O | 3.21 |
| CC(=O)c1cccc([N+](=O)[O-])c1 | 3.32 |
| Cc1ccc(O)cc1[N+](=O)[O-] | 3.74 |
| COC(=O)CCCCCCCCCCCC(=O)OC | 4.65 |
| CCCCCCCCCCC#N | 4.65 |
| C=CS(=O)c1ccccc1 (stereo not drawn) | 3.16 |
| Oc1ccccc1Cc1ccccc1 | 4.31 |
| OCCCCCl | 2.24 |
| CCCCS(=O)(=O)CCCC | 2.74 |
| Cc1ccc(N)cc1C | 2.84 |
| CCCCCCC=O | 3 |
| CCC(=O)N(C)C | 1.43 |
| N#CCCc1ccccc1 | 2.84 |
| COc1ccc(C(C)=O)cc1 | 2.87 |
| OCc1ccccc1F | 2.33 |
| CCCOC(=O)CCC | 2.59 |
| COc1ccc([N+](=O)[O-])cc1 | 3.54 |
| CC(C)(C)C(=O)CCl | 4.27 |
| O=Cc1ccc(I)o1 | 3.33 |
| CCC(O)c1ccccc1 (stereo not drawn) | 2.57 |

| SMILES | 48 h IGC50 (-log10 mol/L) |
| --- | --- |
| CC(C)COC=O | 1.69 |
| CC(=O)OC(C)C | 1.41 |
| OCc1ccccc1-c1ccccc1 | 3.82 |
| C=C(C)C(=O)OCC | 2.07 |
| OCCCc1ccccc1 | 2.79 |
| CCN=C=S | 4.63 |
| COc1cc(C=O)ccc1O | 2.97 |
| CC(=O)OCCCCCCl | 2.87 |
| OCc1cccc(F)c1 | 2.61 |
| COc1cc(C#N)ccc1O | 2.97 |
| CC(=O)c1ccc(C#N)cc1 | 2.63 |
| Oc1ccc(N=Nc2ccccc2)cc1 | 4.66 |
| COc1cccc2ccccc12 | 3.8 |
| CCOC(=O)C(Br)(Br)C(=O)OCC | 5.14 |
| O=C(O)c1cccc(O)c1 | 2.19 |
| O=Cc1ccsc1 | 3.4 |
| CC(C)c1ccc(N)cc1 | 3.22 |
| COc1ccc(N)cc1O | 3.45 |
| C=CCC(=O)O | 2.36 |
| C=C(C=O)CC | 3.91 |
| Cc1cccc(CO)c1 | 2.76 |
| C#CCCCO | 1.58 |
| CC(C)C[C@H](N)CO | 2.38 |
| S=C=NCc1cccc2ccccc12 | 6.06 |

| SMILES | 48 h IGC50 (-log10 mol/L) |
| --- | --- |
| c1ccc(Cc2ccncc2)cc1 | 3.63 |
| O=[N+]([O-])c1cc(C(F)(F)F)ccc1Cl | 3.85 |
| NC(=O)CI | 4.85 |
| CCC[N+](=O)[O-] | 2.01 |
| CC(C)(C)c1cccc(O)c1 | 3.74 |
| CCNc1ccccc1 | 3.07 |
| CNCC(O)CO (stereo not drawn) | 1.47 |
| Oc1ccc(Br)cc1 | 3.68 |
| OC12CC3CC(CC(C3)C1)C2 | 2.92 |
| CNC(C)=O | 1.02 |
| O=[N+]([O-])c1ccc(O)c(O)c1 | 4.17 |
| C/C=C/C=C/C=O | 3.74 |
| C=CCCCO | 1.78 |
| NCCc1ccccn1 | 2.26 |
| Nc1ccc([N+](=O)[O-])cc1[N+](=O)[O-] | 3.72 |
| CCOC(=O)C(Br)CC (stereo not drawn) | 3.76 |
| C=C(C)C(=O)OCC(C)C | 2.72 |
| COc1cc(C=O)cc(O)c1OC | 2.61 |
| CC(=O)c1c(C)c[nH]c1C | 2.68 |
| O=C(c1ccccc1)c1cccc(Cl)c1 | 4.55 |
| O=C(CBr)Oc1ccc([N+](=O)[O-])cc1 | 4.81 |
| CCC#CC(C)=O | 4.32 |
| O=C(CBr)c1cc2ccccc2oc1=O | 5.66 |
| C=C(C)C(=O)OC | 1.78 |

| SMILES | 48 h IGC50 (-log10 mol/L) |
| --- | --- |
| C=C(C)CCO | 1.82 |
| C#CC(O)CCCC (stereo not drawn) | 2.73 |
| C=CCOC(=O)C=C | 3.68 |
| CCCNC | 2.19 |
| OCc1cc(Br)ccc1O | 3.34 |
| CCC(O)CC | 1.76 |
| OCCc1ccccc1 | 2.41 |
| CCCOC(=O)/C=C/c1ccccc1 | 4.23 |
| CCOC(=O)c1ccccn1 | 2.08 |
| CC(Cl)C#N (stereo not drawn) | 2.14 |
| N#Cc1c(F)c(F)c(C#N)c(F)c1F | 5.55 |
| O=C1CCCC(=O)C1 | 2.07 |
| c1cn[nH]c1 | 1.29 |
| CCCc1ccccc1N | 3.08 |
| CCCCS(=O)CCCC | 2.74 |
| CCC(=O)OC(C)(C)C | 2.59 |
| CCCC#CCCO | 2.68 |
| Nc1cc(Cl)c(Cl)cc1[N+](=O)[O-] | 4.66 |
| O=[N+]([O-])c1cccnc1SCc1ccccc1 | 4.72 |
| O=[N+]([O-])c1c(Cl)ncnc1Cl | 5.12 |
| O=Cc1cc(O)c(O)c(O)c1 | 2.8 |
| COC(=O)CCl | 3.89 |
| OCc1c(F)c(F)c(F)c(F)c1F | 2.8 |
| CCOC(=O)CCCl | 2.5 |

| SMILES | 48 h IGC50 (-log10 mol/L) |
| --- | --- |
| Cc1c(C)c(O)c(C)c(C)c1O | 4.28 |
| CCOC(=O)Cc1cccs1 | 3.27 |
| O=[N+]([O-])c1cc(F)cc(I)c1 | 4.09 |
| CCCC#CCC(O)CC (stereo not drawn) | 2.96 |
| CCCC/C=C/C=O | 4.05 |
| Nc1ccc(O)c(N)c1 | 3.13 |
| CCC(=O)CC(=O)CC | 2.62 |
| COc1ccc([N+](=O)[O-])cn1 | 2.99 |
| CCCCC(C(=O)OCC)C(=O)OCC | 3.56 |
| CCCCCCCCCCOC(C)=O | 4.88 |
| O=[N+]([O-])c1cc(Cl)c(Cl)c([N+](=O)[O-])c1Cl | 5.6 |
| Cc1c(O)cccc1[N+](=O)[O-] | 3.78 |
| COC(=O)c1ccc(OC)cc1O | 3.62 |
| N#CCCCCCCCl | 3.29 |
| C=CC(C)O (stereo not drawn) | 1.95 |
| C/C=C(\C)C(=O)OC | 2.38 |
| CCOC(=O)C=C(C)C | 2.52 |
| CCCCCCC(Br)C(=O)OCC (stereo not drawn) | 4.5 |
| N#CCc1ccc(Br)cc1 | 3.6 |
| CCC/C=C/CO | 2.53 |
| O=C(O)c1c(Cl)cc(Cl)cc1Cl | 2.59 |
| C=CCBr | 3.57 |
| O=C(O)CCCCBr | 2.31 |
| C#CCNC | 2.02 |

Source: EPA's aquatic toxicity sets
